Source: article PMC5218480 (PLoS ONE, 2017)

System: MV-4-11 cells
Assay: Gene expression microarray analysis (Affymetrix PrimeView) and GSEA
Type: cell-based, human
Parameters: RFU PODN (11730768_x_at) / Fold change /veh PODN (11730768_x_at) / RFU LINC00158 (11744669_a_at) / Fold change /veh LINC00158 (11744669_a_at) / RFU DUSP10 (11751237_a_at) / Fold change /veh DUSP10 (11751237_a_at) / RFU ID3 (11757404_x_at) / Fold change /veh ID3 (11757404_x_at) / RFU PLEKHG5 (11737974_s_at) / Fold change /veh PLEKHG5 (11737974_s_at) / RFU LRRC4B (11730491_at) / Fold change /veh LRRC4B (11730491_at) / RFU GIMAP4 (11747438_a_at) / Fold change /veh GIMAP4 (11747438_a_at) / RFU KRT8 (11758183_x_at) / Fold change /veh KRT8 (11758183_x_at) / RFU CNN1 (11734310_a_at) / Fold change /veh CNN1 (11734310_a_at) / RFU VPS37D (11726825_at) / Fold change /veh VPS37D (11726825_at) / RFU C10orf10 (11716522_x_at) / Fold change /veh C10orf10 (11716522_x_at) / RFU KIR2DL2 /// KIR2DL4 /// KIR2DL5A /// KIR2DL5B /// KIR2DS1 /// KIR2DS2 /// KIR2DS3 /// KIR2DS4 /// KIR3DL3 /// KIR3DL3 /// KIR3DS1 (11738374_at) / Fold change /veh KIR2DL2 /// KIR2DL4 /// KIR2DL5A /// KIR2DL5B /// KIR2DS1 /// KIR2DS2 /// KIR2DS3 /// KIR2DS4 /// KIR3DL3 /// KIR3DL3 /// KIR3DS1 (11738374_at) / RFU C1QL1 (11718748_at) / Fold change /veh C1QL1 (11718748_at) / RFU TMPRSS4 (11747572_a_at) / Fold change /veh TMPRSS4 (11747572_a_at) / RFU HAMP (11756126_x_at) / Fold change /veh HAMP (11756126_x_at) / RFU RNFT2 (11725882_a_at) / Fold change /veh RNFT2 (11725882_a_at) / RFU NR4A2 (11747474_a_at) / Fold change /veh NR4A2 (11747474_a_at) / RFU ABCC12 (11746883_a_at) / Fold change /veh ABCC12 (11746883_a_at) / RFU TMEM136 (11760407_x_at) / Fold change /veh TMEM136 (11760407_x_at) / RFU CLDN22 /// WWC2 (11732394_at) / Fold change /veh CLDN22 /// WWC2 (11732394_at) / RFU HLA-DPB1 (11760878_x_at) / Fold change /veh HLA-DPB1 (11760878_x_at) / RFU SPINT1 (11716480_a_at) / Fold change /veh SPINT1 (11716480_a_at) / RFU GAP43 (11754022_s_at) / Fold change /veh GAP43 (11754022_s_at) / RFU A4GNT (11735810_at) / Fold change /veh A4GNT (11735810_at) / RFU PRB3 (11715151_x_at) / Fold change /veh PRB3 (11715151_x_at) / RFU TUBB4B (11761932_at) / Fold change /veh TUBB4B (11761932_at) / RFU CAPN14 (11732068_a_at) / Fold change /veh CAPN14 (11732068_a_at) / RFU TMCC2 (11721928_a_at) / Fold change /veh TMCC2 (11721928_a_at) / RFU IRGQ (11745062_a_at) / Fold change /veh IRGQ (11745062_a_at) / RFU FAM174B (11720279_a_at) / Fold change /veh FAM174B (11720279_a_at) / RFU TMPRSS4 (11748680_a_at) / Fold change /veh TMPRSS4 (11748680_a_at) / RFU FAM212B (11763350_a_at) / Fold change /veh FAM212B (11763350_a_at) / RFU PLEKHG5 (11743358_a_at) / Fold change /veh PLEKHG5 (11743358_a_at) / RFU ZSCAN30 (11745921_a_at) / Fold change /veh ZSCAN30 (11745921_a_at) / RFU CMKLR1 (11741424_a_at) / Fold change /veh CMKLR1 (11741424_a_at) / RFU LOC101060620 /// MAPK8IP1 (11723275_at) / Fold change /veh LOC101060620 /// MAPK8IP1 (11723275_at) / RFU SPTSSB (11747773_x_at) / Fold change /veh SPTSSB (11747773_x_at) / RFU PRSS12 (11739890_at) / Fold change /veh PRSS12 (11739890_at) / RFU BIN1 (11741810_x_at) / Fold change /veh BIN1 (11741810_x_at) / RFU WNT11 (11732464_a_at) / Fold change /veh WNT11 (11732464_a_at) / RFU C10orf10 (11716521_a_at) / Fold change /veh C10orf10 (11716521_a_at) / RFU C5orf56 (11738089_at) / Fold change /veh C5orf56 (11738089_at) / RFU CYB561 (11721691_x_at) / Fold change /veh CYB561 (11721691_x_at) / RFU ANKRD19P (11752326_a_at) / Fold change /veh ANKRD19P (11752326_a_at) / RFU OR2T12 /// OR2T33 /// OR2T8 (11738714_s_at) / Fold change /veh OR2T12 /// OR2T33 /// OR2T8 (11738714_s_at) / RFU VCAN (11748164_a_at) / Fold change /veh VCAN (11748164_a_at) / RFU JSRP1 (11732532_at) / Fold change /veh JSRP1 (11732532_at) / RFU KRTAP10-11 (11738290_x_at) / Fold change /veh KRTAP10-11 (11738290_x_at) / RFU MYO3A (11730013_a_at) / Fold change /veh MYO3A (11730013_a_at) / RFU EBF3 (11725865_a_at) / Fold change /veh EBF3 (11725865_a_at) / RFU CAMK2N1 (11719241_x_at) / Fold change /veh CAMK2N1 (11719241_x_at) / RFU C5orf56 (11738088_a_at) / Fold change /veh C5orf56 (11738088_a_at) / RFU OLFML3 (11715873_a_at) / Fold change /veh OLFML3 (11715873_a_at) / RFU LOC100653217 /// NTM (11731650_a_at) / Fold change /veh LOC100653217 /// NTM (11731650_a_at) / RFU MAPK11 (11762145_a_at) / Fold change /veh MAPK11 (11762145_a_at) / RFU FIZ1 (11724087_x_at) / Fold change /veh FIZ1 (11724087_x_at) / RFU OASL (11726364_x_at) / Fold change /veh OASL (11726364_x_at) / RFU SOX15 (11748057_x_at) / Fold change /veh SOX15 (11748057_x_at) / RFU CD79A (11719716_a_at) / Fold change /veh CD79A (11719716_a_at) / RFU HIST1H1D (11736915_at) / Fold change /veh HIST1H1D (11736915_at) / RFU CASKIN2 (11723855_a_at) / Fold change /veh CASKIN2 (11723855_a_at) / RFU LOC730098 (11760151_x_at) / Fold change /veh LOC730098 (11760151_x_at) / RFU OR4N2 (11742367_at) / Fold change /veh OR4N2 (11742367_at) / RFU PRRT2 (11749266_a_at) / Fold change /veh PRRT2 (11749266_a_at) / RFU SNX32 (11753110_a_at) / Fold change /veh SNX32 (11753110_a_at) / RFU CDHR5 (11726645_a_at) / Fold change /veh CDHR5 (11726645_a_at) / RFU RCAN1 (11760418_a_at) / Fold change /veh RCAN1 (11760418_a_at) / RFU FAM167A (11723789_a_at) / Fold change /veh FAM167A (11723789_a_at) / RFU FAM26E (11764081_at) / Fold change /veh FAM26E (11764081_at) / RFU ISYNA1 (11749810_s_at) / Fold change /veh ISYNA1 (11749810_s_at) / RFU ACY1 (11761880_at) / Fold change /veh ACY1 (11761880_at) / RFU 11764098_at / Fold change /veh 11764098_at / RFU SAMD14 (11745864_x_at) / Fold change /veh SAMD14 (11745864_x_at) / RFU NPB (11741838_a_at) / Fold change /veh NPB (11741838_a_at) / RFU TMPRSS6 (11731388_a_at) / Fold change /veh TMPRSS6 (11731388_a_at) / RFU KRTAP10-2 (11738614_at) / Fold change /veh KRTAP10-2 (11738614_at) / RFU ARHGAP8 /// PRR5-ARHGAP8 (11727945_x_at) / Fold change /veh ARHGAP8 /// PRR5-ARHGAP8 (11727945_x_at) / RFU KRTAP5-7 /// NADSYN1 (11734609_at) / Fold change /veh KRTAP5-7 /// NADSYN1 (11734609_at) / RFU RASL12 (11751679_a_at) / Fold change /veh RASL12 (11751679_a_at) / RFU CDKN2B (11736163_a_at) / Fold change /veh CDKN2B (11736163_a_at) / RFU PRF1 (11729649_at) / Fold change /veh PRF1 (11729649_at) / RFU, ZNF638 /// ZNF638-IT1 / Fold change vs veh, ZNF638 /// ZNF638-IT1 / RFU, PANK3 / Fold change vs veh, PANK3 / RFU, SH3YL1 / Fold change vs veh, SH3YL1 / RFU, ZEB2 / Fold change vs veh, ZEB2 / RFU, NRIP1 / Fold change vs veh, NRIP1 / RFU, PTTG1IP / Fold change vs veh, PTTG1IP / RFU, CAPN2 / Fold change vs veh, CAPN2 / RFU, MED14 / Fold change vs veh, MED14 / RFU, SNORA58 / Fold change vs veh, SNORA58 / RFU, C1orf63 / Fold change vs veh, C1orf63 / RFU, LRRFIP1 / Fold change vs veh, LRRFIP1 / RFU, NDUFAF7 / Fold change vs veh, NDUFAF7 / RFU, SLC12A2 / Fold change vs veh, SLC12A2 / RFU, IBTK / Fold change vs veh, IBTK / RFU, ESF1 / Fold change vs veh, ESF1 / Fold change vs veh, TMEM50B / RFU, TAOK1 / Fold change vs veh, TAOK1 / RFU, ACBD3 / Fold change vs veh, ACBD3 / RFU, TMA16 / Fold change vs veh, TMA16 / RFU, RWDD3 / Fold change vs veh, RWDD3 / RFU, BCAT1 / Fold change vs veh, BCAT1 / RFU, EDEM3 / Fold change vs veh, EDEM3 / RFU, TMEM33 / Fold change vs veh, TMEM33 / RFU, WDR75 / Fold change vs veh, WDR75 / RFU, AHCTF1 / Fold change vs veh, AHCTF1 / RFU, TFRC / Fold change vs veh, TFRC / RFU, ZDHHC17 / Fold change vs veh, ZDHHC17 / RFU, NOM1 / Fold change vs veh, NOM1 / RFU, ARL8B / Fold change vs veh, ARL8B / RFU, ZBTB11 / Fold change vs veh, ZBTB11 / RFU, TAMM41 / Fold change vs veh, TAMM41 / RFU, KIAA1704 /// LOC100996395 / Fold change vs veh, KIAA1704 /// LOC100996395 / RFU, ING1 / Fold change vs veh, ING1 / RFU, TRMT61B / Fold change vs veh, TRMT61B / RFU, FUBP3 / Fold change vs veh, FUBP3 / RFU, TP53 / Fold change vs veh, TP53 / RFU, TNKS2 / Fold change vs veh, TNKS2 / RFU, ZFP14 / Fold change vs veh, ZFP14 / RFU, ACTR2 / Fold change vs veh, ACTR2 / RFU, PPP3R1 / Fold change vs veh, PPP3R1 / RFU, PIK3R1 / Fold change vs veh, PIK3R1 / RFU, HNRNPA1 / Fold change vs veh, HNRNPA1 / RFU, RNF170 / Fold change vs veh, RNF170 / RFU, ZNF28 / Fold change vs veh, ZNF28 / RFU, RNGTT / Fold change vs veh, RNGTT / RFU, OGT / Fold change vs veh, OGT / RFU, BRD1 / Fold change vs veh, BRD1 / RFU, MARS / Fold change vs veh, MARS / RFU, ZNF655 / Fold change vs veh, ZNF655 / RFU, FAHD1 / Fold change vs veh, FAHD1 / RFU, BDP1 / Fold change vs veh, BDP1 / RFU, LRRCC1 / Fold change vs veh, LRRCC1 / RFU, ARID1A / Fold change vs veh, ARID1A / RFU, ZNF146 / Fold change vs veh, ZNF146 / RFU, ZNF330 / Fold change vs veh, ZNF330 / RFU, GPN3 / Fold change vs veh, GPN3 / RFU, C9orf123 / Fold change vs veh, C9orf123 / RFU, N4BP2L2 / Fold change vs veh, N4BP2L2 / RFU, ARFIP1 / Fold change vs veh, ARFIP1 / RFU, FAM179B / Fold change vs veh, FAM179B / RFU, BCL10 / Fold change vs veh, BCL10 / RFU, UHRF1BP1L / Fold change vs veh, UHRF1BP1L / RFU, BET1 / Fold change vs veh, BET1 / RFU, CNOT2 / Fold change vs veh, CNOT2 / RFU, ZNF268 / Fold change vs veh, ZNF268 / Fold change vs veh, ZNF507 / RFU, DGCR2 / Fold change vs veh, DGCR2 / RFU, WDSUB1 / Fold change vs veh, WDSUB1 / Fold change vs veh, HSP90B1 /// MIR3652 / RFU, ADSS / Fold change vs veh, ADSS / RFU, GK / Fold change vs veh, GK / RFU, ZNF148 / Fold change vs veh, ZNF148 / RFU, TAF9 / Fold change vs veh, TAF9 / RFU, SLC1A5 / Fold change vs veh, SLC1A5 / RFU, SLMO2 / Fold change vs veh, SLMO2 / RFU, ABCC4 / Fold change vs veh, ABCC4 / RFU, LOC101060439 /// RAP1B / Fold change vs veh, LOC101060439 /// RAP1B / RFU, RFX7 / Fold change vs veh, RFX7 / RFU, GTPBP10 / Fold change vs veh, GTPBP10 / RFU, CNEP1R1 / Fold change vs veh, CNEP1R1 / RFU, BIVM-ERCC5 /// ERCC5 / Fold change vs veh, BIVM-ERCC5 /// ERCC5 / RFU, ILF3 / Fold change vs veh, ILF3 / RFU 11762660_at / Fold change /veh 11762660_at / RFU VCAN (11757783_s_at) / Fold change /veh VCAN (11757783_s_at) / RFU DDX43 (11728927_at) / Fold change /veh DDX43 (11728927_at) / RFU KRT8 (11758188_x_at) / Fold change /veh KRT8 (11758188_x_at) / RFU NKD1 (11759106_at) / Fold change /veh NKD1 (11759106_at) / RFU SRD5A1 (11742802_a_at) / Fold change /veh SRD5A1 (11742802_a_at) / RFU TPSAB1 /// TPSB2 (11721975_s_at) / Fold change /veh TPSAB1 /// TPSB2 (11721975_s_at) / RFU GSTM3 (11746129_a_at) / Fold change /veh GSTM3 (11746129_a_at) / RFU IL23R (11737362_x_at) / Fold change /veh IL23R (11737362_x_at) / RFU TMEM51 (11727254_a_at) / Fold change /veh TMEM51 (11727254_a_at) / RFU PIWIL2 (11732686_x_at) / Fold change /veh PIWIL2 (11732686_x_at) / RFU ORM1 (11744905_x_at) / Fold change /veh ORM1 (11744905_x_at) / RFU CCDC152 (11743942_at) / Fold change /veh CCDC152 (11743942_at) / RFU ECM1 (11717891_a_at) / Fold change /veh ECM1 (11717891_a_at) / RFU IL23R (11748794_a_at) / Fold change /veh IL23R (11748794_a_at) / RFU TNFAIP8L3 (11732012_x_at) / Fold change /veh TNFAIP8L3 (11732012_x_at) / RFU MBOAT4 (11741988_at) / Fold change /veh MBOAT4 (11741988_at) / RFU 11764193_at / Fold change /veh 11764193_at / RFU TMEM53 (11763286_at) / Fold change /veh TMEM53 (11763286_at) / RFU MAGEB2 (11727129_at) / Fold change /veh MAGEB2 (11727129_at) / RFU TMEM200A (11744735_a_at) / Fold change /veh TMEM200A (11744735_a_at) / RFU CCDC152 (11751479_a_at) / Fold change /veh CCDC152 (11751479_a_at) / RFU FAM211A (11726209_a_at) / Fold change /veh FAM211A (11726209_a_at) / RFU RGS16 (11746705_a_at) / Fold change /veh RGS16 (11746705_a_at) / RFU VCAN (11755009_s_at) / Fold change /veh VCAN (11755009_s_at) / RFU RHOB (11743442_s_at) / Fold change /veh RHOB (11743442_s_at) / RFU RGS16 (11720943_a_at) / Fold change /veh RGS16 (11720943_a_at) / RFU RGS16 (11720944_at) / Fold change /veh RGS16 (11720944_at) / RFU, VPS4B / Fold change vs veh, VPS4B / RFU, CREB1 / Fold change vs veh, CREB1 / RFU, DNAJC13 / Fold change vs veh, DNAJC13 / RFU, GNAQ / Fold change vs veh, GNAQ / RFU, CDK5R1 / Fold change vs veh, CDK5R1 / RFU, ZRANB3 / Fold change vs veh, ZRANB3 / RFU, CUL4A / Fold change vs veh, CUL4A / RFU, CCNY / Fold change vs veh, CCNY / RFU, UFL1 / Fold change vs veh, UFL1 / RFU, COG3 / Fold change vs veh, COG3 / RFU, DIAPH2 / Fold change vs veh, DIAPH2 / RFU, SKA2 / Fold change vs veh, SKA2 / RFU, AFF3 / Fold change vs veh, AFF3 / RFU, LMF1 / Fold change vs veh, LMF1 / RFU, IPO11 / Fold change vs veh, IPO11 / RFU, DFFB / Fold change vs veh, DFFB / RFU, FOXP1 / Fold change vs veh, FOXP1 / RFU, CARD8 / Fold change vs veh, CARD8 / RFU, STRN3 / Fold change vs veh, STRN3 / RFU, ADK / Fold change vs veh, ADK / RFU, RASSF2 / Fold change vs veh, RASSF2 / RFU, WIPF1 / Fold change vs veh, WIPF1 / RFU, LARP1B / Fold change vs veh, LARP1B / RFU, RASA1 / Fold change vs veh, RASA1 / RFU, RB1 / Fold change vs veh, RB1 / RFU, PPFIA1 / Fold change vs veh, PPFIA1 / RFU, MAT2A / Fold change vs veh, MAT2A / RFU, CCT5 / Fold change vs veh, CCT5 / RFU, WDR92 / Fold change vs veh, WDR92 / RFU, CUX1 / Fold change vs veh, CUX1 / RFU, TTC7A / Fold change vs veh, TTC7A / RFU, TMEM135 / Fold change vs veh, TMEM135 / RFU, DEPTOR / Fold change vs veh, DEPTOR / RFU, CPM / Fold change vs veh, CPM / RFU, DNAJB6 / Fold change vs veh, DNAJB6 / RFU, CACNA2D3 / Fold change vs veh, CACNA2D3 / RFU, DTX4 / Fold change vs veh, DTX4 / RFU, TFCP2 / Fold change vs veh, TFCP2 / RFU, GMCL1 /// GMCL1P1 / Fold change vs veh, GMCL1 /// GMCL1P1 / RFU, AEBP2 / Fold change vs veh, AEBP2 / RFU, SNHG1 /// SNORD22 /// SNORD25 /// SNORD26 /// SNORD27 /// SNORD28 /// SNORD29 /// SNORD31 / Fold change vs veh, SNHG1 /// SNORD22 /// SNORD25 /// SNORD26 /// SNORD27 /// SNORD28 /// SNORD29 /// SNORD31 / Fold change (Aza/veh), C12orf56 (ProbeSet 11735607_a_at) / Fold change (ACY-1035/veh), C12orf56 (ProbeSet 11735607_a_at) / Fold change (Aza/veh), FGFR1OP (ProbeSet 11751329_s_at) / Fold change (ACY-1035/veh), FGFR1OP (ProbeSet 11751329_s_at) / Fold change (Aza/veh), VPS36 (ProbeSet 11739960_a_at) / Fold change (ACY-1035/veh), VPS36 (ProbeSet 11739960_a_at) / RFU SYPL1 (11715823_x_at) / Fold change /veh SYPL1 (11715823_x_at) / RFU IGFBP7 (11715501_s_at) / Fold change /veh IGFBP7 (11715501_s_at) / RFU REEP3 (11722064_at) / Fold change /veh REEP3 (11722064_at) / RFU IGLL1 (11728026_x_at) / Fold change /veh IGLL1 (11728026_x_at): dose or concentration left out as unconfirmed
Settings: ProbeSet 11725217_a_at; LIST B

Nc1ccc(-c2cccs2)cc1NC(=O)c1ccc2c(c1)cc(C1CC1)n2CCN1CCOCC1 [ACY-1035]
RFU, WDSUB1: 59.59 RFU
